{"source": "paper PMC7002685", "about": "“Inhibition of vascular calcification by inositol phosphates derivatized with ethylene glycol oligomers” (Nature Communications, 2020)", "key": {"primary human VSMCs [1]": {"test_system": "primary human VSMCs", "test": "VSMC viability (MTS), compounds only", "format": "cell-based", "conditions": "compound only"}, "[2]": {"test": "VSMC viability (MTS) in high-CaP medium", "format": "cell-based, human", "conditions": "human, primary human VSMCs, read-out: VSMC viability (MTS), % of medium control"}, "primary human VSMCs [3]": {"test_system": "primary human VSMCs", "test": "VSMC viability (MTS) in high-CaP medium", "format": "cell-based"}, "primary human VSMCs [4]": {"test_system": "primary human VSMCs", "test": "CPP2-induced VSMC calcification", "format": "cell-based", "conditions": "CPP2 50 µg Ca/mL, 48 h", "protocol": "(§1) Macrophage accumulation and inflammation coincide with the initial phase of calcification. To this end, VSMCs and THP-1-derived macrophages were exposed to CPP2-supplemented medium. CPP2 prepared from human serum as described previously[61] (Supplementary Figs. 6 and 7), induced a pronounced VSMC monolayer calcification after 48 h, which was decreased by (OEG2)2-IP4 in a dose-dependent fashion, and the effect became significant at 10 µM (Fig. 3e). […] Both H2O2 (proxy for oxidative stress) and tumor necrosis factor-alpha (TNF-α) (proxy for inflammatory response) levels were assayed in the VSMC culture supernatants subsequent to CPP2 treatment with and without compounds[30]. However, no increase in H2O2 nor TNF-α compared to control could be detected in either assay. For the CPP-induced VSMC calcification assay (Fig. 3e) a roughly 10-fold higher concentration of (OEG2)2-IP4 was necessary to achieve similar activity as in the CaP-induced VSMC calcification assay (Fig. 3b). […] In the CaP assay, low inhibitor concentration may be sufficient to inhibit crystal nucleation, whereas for the CPP assay higher inhibitor concentrations may be needed to achieve sufficient particle stabilization by chemisorption of inhibitor onto CPPs. Similar results have been reported for hydrogen sulfide in the context of VC[62],[64]. […] An increase in the TNFα levels in the cell culture supernatants was not observed for (OEG2)2-IP4 with (Fig. 3h) and without (Supplementary Fig. 10) combined CPP2 treatment.\nPrimary human VSMCs (C-12533, PromoCell, Heidelberg, Germany) were cultured according to the manufacturer's guidelines in SMC-2 culture medium (C-22062, PromoCell) and used up to passage 7. For calcification experiments cells were seeded onto 24-well plates (TPP) at a density of 20,000 cells/well and left to attach for 48–72 h. Complete medium was M199 medium (31150022, Thermo Fischer Scientific), supplemented with 10% v/v FBS (10270106, Thermo Fisher Scientific, Waltham, MA), 1% v/v penicillin/streptomycin (15140122, Thermo Fisher Scientific), and 4 mM L-glutamine (25030024, Thermo Fisher Scientific)[80]. Calcification of cell monolayers was induced as described previously[81] by treatment with CPP2-supplemented (50 µg Ca/mL) medium with or without test compounds (1, 3, 10, 30, and 100 µM) at a volume of 1 mL/well for 48 h at 37 °C, 5% CO2. In a second assay, calcification was induced similar to previous experiments[56] by cell treatment with or without test compounds (0.01, 0.1, 1, 10, and 100 µM) in complete medium supplemented with calcium (2.7 mM) and phosphate (2.5 mM) (CaP medium) at a volume of 1 mL/well for 5 days, and treatment medium was replaced on alternate days.\nCalcium deposition on cell monolayers was assessed qualitatively by staining for calcium with 2% w/v Alizarin Red S aqueous solution (pH 4.2) (05600, Fluka Analytical). Cell monolayers in 24-well plates were washed with PBS (10010015, Thermo Fischer), fixed in 10% v/v NBF in PBS (F8775, Sigma-Aldrich) for 45 min at RT, washed with milli-Q water, incubated for 3 min with 300 µL Alizarin Red S solution, washed with milli-Q, and images were acquired using a Axiovert 35 microscope (Zeiss, Carl Zeiss Microscopy GmbH, Jena, Germany) at ×100 magnification. Calcium quantitation was performed after washing cells with PBS and then decalcifying cell monolayers with 0.1 M HCl overnight at 4 °C. Acidic supernatants were centrifuged (10,000 × g, 4 °C, 10 min) and calcium content was assessed using the calcium colorimetric assay."}, "[5]": {"test": "VSMC viability (MTS) in CPP2-supplemented medium", "format": "cell-based, human", "conditions": "human, primary human VSMCs, read-out: VSMC viability (MTS), % of medium control", "protocol": "as §1\n(§2) Cell viability was assessed using the MTS assay (CellTiter 96® Aqueous One Solution Cell Proliferation Assay, G3580; Promega, Madison, WI, USA) according to the manufacturer’s instructions. Assays using combined treatment of CPPs or CaP and test compounds were performed in 24-well plates using 20,000 cells per well and assays using test compounds only were performed in a 96-well plate format with a seeding density of 10,000 (VSMC) or 50,000 (THP-1) cells per well, respectively. For controls, cells were treated with respective complete medium only and results were calculated as % of control."}, "primary human VSMCs [6]": {"test_system": "primary human VSMCs", "test": "VSMC viability (MTS) in CPP2-supplemented medium", "format": "cell-based", "protocol": "as §1, §2"}, "[7]": {"test": "Macrophage viability (MTS) with CPP2 and compounds", "format": "cell-based, human", "conditions": "human, THP-1-derived macrophages, read-out: Macrophage viability (MTS), % of medium control", "protocol": "as §1\n(§3) THP-1 cells were plated at a density of 200,000 cells/well in a 24-well plate, differentiated as stated above, and subsequently treated with or without CPP2 (50 μg Ca/mL) in complete medium with or without test compounds (3, 10, 30, 100 μM) for 24 h at 37 °C, 5% CO2.\nas §2"}, "[8]": {"test_system": "THP-1-derived macrophages", "test": "Macrophage viability (MTS) with CPP2 and compounds", "format": "cell-based, human", "protocol": "as §1, §3, §2"}, "[9]": {"test": "Serum calcification propensity assay after 4.5 h incubation in enzymatically active human serum", "conditions": "Fig. 2e"}, "[10]": {"conditions": "1 µM with CPP2, replicates Fig. 3f"}}, "note": "Where “and” joins values, the source holds several entries; their conditions need not be identical. Identical values can stand only once.", "data": [{"smiles": "O=P(O)(O)O[C@H]1[C@H](OP(=O)(O)O)[C@@H](OP(=O)(O)O)[C@H](OP(=O)(O)O)[C@@H](OP(=O)(O)O)[C@H]1OP(=O)(O)O", "note": "[IP6, myo-Inositol hexakisphosphate]", "values": [{"measurement": "VSMC viability (MTS), % of medium control", "setting": "primary human VSMCs [1]; 0.01 µM, replicates Fig. 3a", "result": "107.6% and 117.7% and 127.9%"}, {"measurement": "VSMC viability (MTS), % of medium control", "setting": "primary human VSMCs [1]; 0.1 µM", "result": "101.2% and 116.5% and 123.9%"}, {"measurement": "VSMC viability (MTS), % of medium control", "setting": "primary human VSMCs [1]; 1 µM", "result": "102.4% and 110.2% and 123.7%"}, {"measurement": "VSMC viability (MTS), % of medium control", "setting": "primary human VSMCs [1]; 10 µM", "result": "107.1% and 105.1% and 128.6%"}, {"measurement": "VSMC viability (MTS), % of medium control", "setting": "primary human VSMCs [1]; 100 µM", "result": "108.9% and 116.9% and 143.6%"}, {"measurement": "viability at 5 days, 1 µM", "setting": "[2]; 1 µM in high-CaP medium", "result": 68.8, "unit": "%"}, {"measurement": "viability at 5 days, 10 µM", "setting": "[2]; 10 µM in high-CaP medium", "result": 69.9, "unit": "%"}, {"measurement": "viability at 5 days, 100 µM", "setting": "[2]; 100 µM in high-CaP medium", "result": 78.7, "unit": "%"}, {"measurement": "VSMC viability (MTS), % of medium control", "setting": "primary human VSMCs [3]; 0.01 µM in high-CaP medium, replicates Fig. 3d", "result": "67.31% and 30.78% and 56.19%"}, {"measurement": "VSMC viability (MTS), % of medium control", "setting": "primary human VSMCs [3]; 0.1 µM in high-CaP medium", "result": "69.48% and 36.65% and 58.54%"}, {"measurement": "VSMC viability (MTS), % of medium control", "setting": "primary human VSMCs [3]; 1 µM in high-CaP medium", "result": "54.02% and 63.76%"}, {"measurement": "VSMC viability (MTS), % of medium control", "setting": "primary human VSMCs [3]; 10 µM in high-CaP medium", "result": "84.96% and 80.54%"}, {"measurement": "VSMC viability (MTS), % of medium control", "setting": "primary human VSMCs [3]; 100 µM in high-CaP medium", "result": "97.34% and 86.99%"}, {"measurement": "VSMC calcium deposition, % of CPP2 control", "setting": "primary human VSMCs [4]; 1 µM, replicates Fig. 3e", "result": "77.8896% and 82.8838% and 86.0538% and 91.73%"}, {"measurement": "VSMC calcium deposition, % of CPP2 control", "setting": "primary human VSMCs [4]; 3 µM", "result": "95.5105% and 90.2183% and 79.3785% and 87.2842%"}, {"measurement": "VSMC calcium deposition, % of CPP2 control", "setting": "primary human VSMCs [4]; 10 µM", "result": 37.8415, "unit": "%"}, {"measurement": "VSMC calcium deposition, % of CPP2 control", "setting": "primary human VSMCs [4]; 30 µM", "result": "57.6847% and 47.1535% and 71.7458% and 75.8811%"}, {"measurement": "VSMC calcium deposition, % of CPP2 control", "setting": "primary human VSMCs [4]; 100 µM", "result": "79.2544% and 65.4345% and 85.4719%"}, {"measurement": "viability at 48 h, 1 µM", "setting": "[5]; [10]", "result": 100, "unit": "%"}, {"measurement": "viability at 48 h, 3 µM", "setting": "[5]; 3 µM with CPP2", "result": 106, "unit": "%"}, {"measurement": "viability at 48 h, 10 µM", "setting": "[5]; 10 µM with CPP2", "result": 109, "unit": "%"}, {"measurement": "viability at 48 h, 30 µM", "setting": "[5]; 30 µM with CPP2", "result": 94.2, "unit": "%"}, {"measurement": "VSMC viability (MTS), % of medium control", "setting": "primary human VSMCs [6]; [10]", "result": "94.0938% and 110.013%"}, {"measurement": "VSMC viability (MTS), % of medium control", "setting": "primary human VSMCs [6]; 3 µM with CPP2", "result": "97.0633% and 115.505%"}, {"measurement": "VSMC viability (MTS), % of medium control", "setting": "primary human VSMCs [6]; 10 µM with CPP2", "result": "97.8153% and 108.364%"}, {"measurement": "VSMC viability (MTS), % of medium control", "setting": "primary human VSMCs [6]; 30 µM with CPP2", "result": "106.197% and 112.672%"}, {"measurement": "VSMC viability (MTS), % of medium control", "setting": "primary human VSMCs [6]; 100 µM with CPP2", "result": "103.122% and 102.613% and 123.477%"}, {"measurement": "viability at 24 h, 3 µM", "setting": "[7]; 3 µM + CPP2, replicates Fig. 3i", "result": 100, "unit": "%"}, {"measurement": "viability at 24 h, 10 µM", "setting": "[7]; 10 µM + CPP2", "result": 98, "unit": "%"}, {"measurement": "viability at 24 h, 30 µM", "setting": "[7]; 30 µM + CPP2", "result": 95.5, "unit": "%"}, {"measurement": "viability at 24 h, 100 µM", "setting": "[7]; 100 µM + CPP2", "result": 69.2, "unit": "%"}, {"measurement": "Macrophage viability (MTS), % of medium control", "setting": "[8]; 3 µM + CPP2, replicates Fig. 3i, 3 µM", "result": "102.11% and 100.63%"}, {"measurement": "Macrophage viability (MTS), % of medium control", "setting": "[8]; 10 µM + CPP2, 10 µM", "result": 99.19, "unit": "%"}, {"measurement": "Macrophage viability (MTS), % of medium control", "setting": "[8]; 30 µM + CPP2, 30 µM", "result": "96.22% and 102.8%"}, {"measurement": "reduction of macrophage viability", "setting": "[8]; 100 µM + CPP2", "result": 24, "unit": "%"}, {"measurement": "Macrophage viability (MTS), % of medium control", "setting": "[8]; 100 µM + CPP2, 100 µM", "result": "79.04% and 78.68%"}, {"measurement": "ΔT50 after 4.5 h vs 0 h incubation in enzymatically active human serum", "setting": "[9]; compound at c350 concentration, 37 °C, individual donors", "result": "-69 min and -77 min and -76 min and -70 min"}, {"measurement": "decrease of T50 from baseline after 4.5-h incubation in enzymatically active serum", "setting": "[9]; mean", "result": 73, "unit": "min"}]}]}
